In US6852696B2, “Inhibitors of glycosaminoglycans” (The University of Texas System, priority 1999, dated 2005):

Assays:
[1] = test system: B16-F10 melanoma cells; test: Experimentally induced lung metastasis of i.v. infused B16-F10 melanoma cells; type: in vivo, C57BL/6 mice; conditions: simultaneous i.v. injection with B16-F10 cells
Protocol: (§1) FIGS. 4A-C. Impact of Pep-1 on lung metastasis of melanoma. (FIG. 4A) B16-F10 melanoma cells were suspended (4×10^5 cells/ml) in PBS containing Pep-1 monomer (2 or 3 mg/ml) (circles) or 2% DMSO alone (triangles). C57BL/6 mice received i.v. injection of these cell suspensions (500 μl/animal) and were examined for survival. Data shown are the cumulative survival curves from four independent experiments (n=37 for Pep-1 and n=20 for PBS control). […] (FIG. 4B) B16-F10 melanoma cells (1×10^5 cells/animal) were s.c. injected into the back of C57BL/6 mice. Pep-1 or RP (40 μg/injection) was injected locally into the tumor inoculation sites 0. 3. and 6 days after tumor injection. Data shown are the means+/−s.e.m. (n=10) of tumor sizes and tumor weights measured 10 days after tumor inoculation. (FIG. 4C) B16-F10 melanoma cells (2×10^5 cells/well) were cultured in the presence of the indicated concentrations of Pep-1 (closed circles) or PR (open circles). Data shown are the means+/−s.e.m.(n=3) of ^3H-thymidine uptake at 24 hr.
In the model, melanoma cells and Pep-1 (or random peptide control or PBS alone) were injected together intravenously into syngeneic C57BL/6 mice and lung metastasis was examined macroscopically and by following-up the survival of mice. […] The inventors will also examine the prophylactic and therapeutic potentials of multimeric Pep-1 formulations and other chemically modified Pep-1 derivatives using this animal model of melanoma metastasis.

[2] = test system: B16-F10 melanoma cells; test: In vitro growth of B16-F10 melanoma cells (3H-thymidine uptake); type: cell-based, mouse; conditions: 3H-thymidine uptake at 24 hr
Protocol: as §1

[3] = test system: HA; conditions: co-pending application 60/126,475; cited from earlier work

## GAHWQFNALTVR [Pep-1]
[1]
  survival of recipient animals: prolonged the survival of recipient animals significantly
[1]; listed as Pep-1 monomer
  survival of recipient animals: Statistically significant difference (p<0.01 by the log-rank test)
[1]; vs RP control
  extent of lung metastasis: reduced the extent of lung metastasis significantly
[2]
  effect on in vitro growth of B16-F10 melanoma cells: no apparent effects
[3]
  binding to HA: specific binding to soluble, immobilized, and cell-associated forms of HA
